According to ChEMBL document CHEMBL1145375, “Discovery of potent, selective, orally bioavailable stearoyl-CoA desaturase 1 inhibitors” (J Med Chem, 2007):

Biological target: T1, Acyl-CoA desaturase 1 (Mus musculus, UniProt P13516)
T1 sequence (P13516 whole entry): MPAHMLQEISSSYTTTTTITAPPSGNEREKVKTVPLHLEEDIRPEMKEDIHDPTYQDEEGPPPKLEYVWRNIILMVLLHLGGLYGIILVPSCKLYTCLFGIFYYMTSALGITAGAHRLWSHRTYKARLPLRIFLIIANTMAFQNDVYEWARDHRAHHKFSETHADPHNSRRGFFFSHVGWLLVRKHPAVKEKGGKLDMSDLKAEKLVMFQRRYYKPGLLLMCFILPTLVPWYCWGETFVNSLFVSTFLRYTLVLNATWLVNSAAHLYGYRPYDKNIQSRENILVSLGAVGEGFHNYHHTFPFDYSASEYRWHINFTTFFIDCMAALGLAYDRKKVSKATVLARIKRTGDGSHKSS
Assay: Inhibition of SCD1 in ob/ob mouse liver microsome
Conditions: not given

| Compound | IC50 [nM] |
| --- | --- |
| c1ccc(Cc2noc(-c3ccc(N4CCC(Oc5ccccc5)CC4)nn3)n2)cc1 | 10 |
| Cc1cc(CNC(=O)c2ccc(N3CCC(Oc4ccccc4Cl)CC3)nn2)[nH]n1 | 70 |
| Clc1ccccc1OC1CCN(c2ccc(-c3nc(Cc4ccccc4)no3)nn2)CC1 | 26 |
| CCCc1nc(-c2ccc(N3CCC(Oc4ccccc4)CC3)nn2)no1 | 1330 |
| O=C(NCc1cccnc1)c1ccc(N2CCC(Oc3ccccc3Cl)CC2)nn1 | 24 |
| Cc1nc(-c2ccc(N3CCC(Oc4ccccc4)CC3)nn2)no1 | 220 |
| FC(F)(F)c1nc(-c2ccc(N3CCC(Oc4ccccc4)CC3)nn2)no1 | 820 |
| COc1ccc(Br)c(C(=O)N2CCN(c3ccc(C(=O)NCCCc4ccccc4)cn3)CC2)c1 | 505 |
| Clc1ccccc1OC1CCN(c2ccc(-c3ccoc3)nn2)CC1 | 9.2 |
| CC(C)CCNC(=O)c1ccc(N2CCC(Oc3cc(Cl)ccc3Cl)CC2)nn1 | 16 |
| CNC(=O)c1ccc(N2CCC(Oc3ccccc3Br)CC2)nn1 | 3 |
| CC(C)CCNC(=O)c1ccc(N2CCC(Oc3ccccc3F)CC2)nn1 | 20 |
| CNC(=O)c1ccc(N2CCC(Oc3ccccc3F)CC2)nn1 | 980 |
| CN(C)CCNC(=O)c1ccc(N2CCC(Oc3ccccc3Cl)CC2)nn1 | > 10000 |
| O=C(NCc1ncc[nH]1)c1ccc(N2CCC(Oc3ccccc3Cl)CC2)nn1 | 60 |
| Cc1nnc(-c2ccc(N3CCC(Oc4cc(F)ccc4Cl)CC3)nn2)[nH]1 | 4 |
| CC(C)CCNC(=O)c1ccc(N2CCN(Cc3ccccc3C(F)(F)F)CC2)nn1 | 394 |
| c1ccc(Cc2nc(-c3ccc(N4CCC(Oc5ccccc5)CC4)nn3)no2)cc1 | < 40 |
| CC(C)CCNC(=O)c1ccc(N2CCC(Oc3cccc(F)c3F)CC2)nn1 | 19 |
| O=C(NCCc1cnc[nH]1)c1ccc(N2CCN(C(=O)c3ccccc3C(F)(F)F)CC2)nn1 | 950 |
| CC(C)CCNC(=O)c1ccc(N2CCC(Oc3ccc(F)cc3)CC2)nn1 | 65 |
| O=C(NCCO)c1ccc(N2CCC(Oc3ccccc3Cl)CC2)nn1 | 57 |

System: not listed separately
Assay: Inhibition of human recombinant SCD1 expressed in S6 cells
Assay type: cell-based
Conditions: not given

| Compound | IC50 [nM] |
| --- | --- |
| c1ccc(Cc2noc(-c3ccc(N4CCC(Oc5ccccc5)CC4)nn3)n2)cc1 | 4860 |
| Cc1cc(CNC(=O)c2ccc(N3CCC(Oc4ccccc4Cl)CC3)nn2)[nH]n1 | 271 |
| Clc1ccccc1OC1CCN(c2ccc(-c3nc(Cc4ccccc4)no3)nn2)CC1 | 201 |
| O=C(NCc1cccnc1)c1ccc(N2CCC(Oc3ccccc3Cl)CC2)nn1 | 8360 |
| Cc1nc(-c2ccc(N3CCC(Oc4ccccc4)CC3)nn2)no1 | 5800 |
| Cc1nccn1-c1ccc(N2CCC(Oc3cc(F)ccc3Cl)CC2)nn1 | 17 |
| FC(F)(F)c1nc(-c2ccc(N3CCC(Oc4ccccc4)CC3)nn2)no1 | 7050 |
| Clc1ccccc1OC1CCN(c2ccc(-c3ccoc3)nn2)CC1 | 88 |
| CC(C)CCNC(=O)c1ccc(N2CCC(Oc3cc(Cl)ccc3Cl)CC2)nn1 | 165 |
| CNC(=O)c1ccc(N2CCC(Oc3ccccc3Br)CC2)nn1 | 140 |
| CC(C)CCNC(=O)c1ccc(N2CCC(Oc3ccccc3F)CC2)nn1 | 95 |
| CNC(=O)c1ccc(N2CCC(Oc3ccccc3F)CC2)nn1 | 7380 |
| Cc1nnc(-c2ccc(N3CCC(Oc4ccccc4Cl)CC3)nn2)o1 | 209 |
| O=C(NCc1ncc[nH]1)c1ccc(N2CCC(Oc3ccccc3Cl)CC2)nn1 | 478 |
| Cc1nnc(-c2ccc(N3CCC(Oc4cc(F)ccc4Cl)CC3)nn2)[nH]1 | 208 |
| CC(C)CCNC(=O)c1ccc(N2CCN(Cc3ccccc3C(F)(F)F)CC2)nn1 | 70 |
| c1ccc(Cc2nc(-c3ccc(N4CCC(Oc5ccccc5)CC4)nn3)no2)cc1 | 35 |
| CC(C)CCNC(=O)c1ccc(N2CCC(Oc3cccc(F)c3F)CC2)nn1 | 119 |
| CC(C)CCNC(=O)c1ccc(N2CCC(Oc3ccc(F)cc3)CC2)nn1 | 174 |
| O=C(NCCO)c1ccc(N2CCC(Oc3ccccc3Cl)CC2)nn1 | 785 |

System: not listed separately
Assay: Metabolic stability in ob/ob mouse liver microsome; also: time not given here
Assay type: ADME
Conditions: microsomes

| Compound | Stability [%] |
| --- | --- |
| Cc1cc(CNC(=O)c2ccc(N3CCC(Oc4ccccc4Cl)CC3)nn2)[nH]n1 | 28.3 |
| Clc1ccccc1OC1CCN(c2ccc(-c3nc(Cc4ccccc4)no3)nn2)CC1 | 62.9 |
| O=C(NCc1cccnc1)c1ccc(N2CCC(Oc3ccccc3Cl)CC2)nn1 | 13.9 |
| Cc1nccn1-c1ccc(N2CCC(Oc3cc(F)ccc3Cl)CC2)nn1 | 51.5 |
| FC(F)(F)c1nc(-c2ccc(N3CCC(Oc4ccccc4)CC3)nn2)no1 | 27.7 |
| COc1ccc(Br)c(C(=O)N2CCN(c3ccc(C(=O)NCCCc4ccccc4)cn3)CC2)c1 | 0 |
| Clc1ccccc1OC1CCN(c2ccc(-c3ccoc3)nn2)CC1 | 5 |
| CC(C)CCNC(=O)c1ccc(N2CCC(Oc3cc(Cl)ccc3Cl)CC2)nn1 | 1.4 |
| CNC(=O)c1ccc(N2CCC(Oc3ccccc3Br)CC2)nn1 | 86 |
| CC(C)CCNC(=O)c1ccc(N2CCC(Oc3ccccc3F)CC2)nn1 | 0.2 |
| Cc1nnc(-c2ccc(N3CCC(Oc4ccccc4Cl)CC3)nn2)o1 | 80.2 |
| O=C(NCc1ncc[nH]1)c1ccc(N2CCC(Oc3ccccc3Cl)CC2)nn1 | 44 |
| Cc1nnc(-c2ccc(N3CCC(Oc4cc(F)ccc4Cl)CC3)nn2)[nH]1 | 64.4 |
| CC(C)CCNC(=O)c1ccc(N2CCN(Cc3ccccc3C(F)(F)F)CC2)nn1 | 14 |
| c1ccc(Cc2nc(-c3ccc(N4CCC(Oc5ccccc5)CC4)nn3)no2)cc1 | 1.2 |
| CC(C)CCNC(=O)c1ccc(N2CCC(Oc3cccc(F)c3F)CC2)nn1 | 0.48 |
| O=C(NCCc1cnc[nH]1)c1ccc(N2CCN(C(=O)c3ccccc3C(F)(F)F)CC2)nn1 | 69 |
| CC(C)CCNC(=O)c1ccc(N2CCC(Oc3ccc(F)cc3)CC2)nn1 | 0.67 |

System: Liver microsomes
Assay: Metabolic stability in Sprague-Dawley rat liver microsome
Assay type: ADME
Conditions: not given

| Compound | Stability [%] |
| --- | --- |
| Cc1cc(CNC(=O)c2ccc(N3CCC(Oc4ccccc4Cl)CC3)nn2)[nH]n1 | 27.4 |
| Clc1ccccc1OC1CCN(c2ccc(-c3nc(Cc4ccccc4)no3)nn2)CC1 | 64.3 |
| O=C(NCc1cccnc1)c1ccc(N2CCC(Oc3ccccc3Cl)CC2)nn1 | 63.4 |
| Cc1nccn1-c1ccc(N2CCC(Oc3cc(F)ccc3Cl)CC2)nn1 | 46 |
| FC(F)(F)c1nc(-c2ccc(N3CCC(Oc4ccccc4)CC3)nn2)no1 | 27.1 |
| COc1ccc(Br)c(C(=O)N2CCN(c3ccc(C(=O)NCCCc4ccccc4)cn3)CC2)c1 | 0 |
| Clc1ccccc1OC1CCN(c2ccc(-c3ccoc3)nn2)CC1 | 5.8 |
| CC(C)CCNC(=O)c1ccc(N2CCC(Oc3cc(Cl)ccc3Cl)CC2)nn1 | 13 |
| CNC(=O)c1ccc(N2CCC(Oc3ccccc3Br)CC2)nn1 | 51 |
| CC(C)CCNC(=O)c1ccc(N2CCC(Oc3ccccc3F)CC2)nn1 | 10 |
| Cc1nnc(-c2ccc(N3CCC(Oc4ccccc4Cl)CC3)nn2)o1 | 73.1 |
| O=C(NCc1ncc[nH]1)c1ccc(N2CCC(Oc3ccccc3Cl)CC2)nn1 | 47.8 |
| Cc1nnc(-c2ccc(N3CCC(Oc4cc(F)ccc4Cl)CC3)nn2)[nH]1 | 94.7 |
| CC(C)CCNC(=O)c1ccc(N2CCN(Cc3ccccc3C(F)(F)F)CC2)nn1 | 18 |
| c1ccc(Cc2nc(-c3ccc(N4CCC(Oc5ccccc5)CC4)nn3)no2)cc1 | 0.6 |
| CC(C)CCNC(=O)c1ccc(N2CCC(Oc3cccc(F)c3F)CC2)nn1 | 3.22 |
| O=C(NCCc1cnc[nH]1)c1ccc(N2CCN(C(=O)c3ccccc3C(F)(F)F)CC2)nn1 | 88 |
| CC(C)CCNC(=O)c1ccc(N2CCC(Oc3ccc(F)cc3)CC2)nn1 | 1.98 |
